Laboratory results from patent US4882349A, “Pyrrolacetic amides having antiinflammatory activity” (priority 1982, dated 1989).

What was measured:
[1] = tested on: carrageenin-induced oedema; assay: carrageenin-induced oedema test (anti-inflammatory activity); format: in vivo, albino male Wistar rats
[2] = tested on: phenyl-p-quinone-induced writhing (abdominal contractions); assay: phenylquinone-induced writhing test (analgesic activity), compound given 30 min before phenyl-p-quinone; format: in vivo, male Wistar rats
Method in brief: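 Male Wistar rats (110±5 g), fasted 14 h, received test compounds orally or parenterally in 0.5% CMC/saline vehicle 30 min before 2 ml of 0.36% phenyl-p-quinone in 5% ethanol.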

[3] = tested on: mucus secreted by the respiratory airway; assay: antisecretory activity, respiratory mucus secretion; format: in vivo, albino male New Zealand rabbits; conditions: vs control group
Method in brief: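 Male New Zealand rabbits, groups of four, urethane-anaesthetised (1.1 g/kg i.p.) with tracheal Y cannula breathing 100%-humidity air at 39° C. Mucus collected and measured 3 and 6 h post-dose; change expressed as percent difference from vehicle controls.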

[4] = tested on: cough provoked by mechanical stimulation of the tracheal bifurcation mucosa; assay: antitussive activity, mechanically provoked coughing; format: in vivo, albino Guinea-pigs; conditions: 1 h after administration
Method in brief: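 Albino guinea-pigs (300 g) with a tracheal Y cannula; coughing provoked by mechanically stimulating the tracheal bifurcation mucosa with a boar's hair.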

[5] = in vivo; conditions: mouse
[6] = in vivo; conditions: rat

## Cc1ccc(C(=O)c2ccc(CC(=O)N3CCOCC3)n2C)cc1 [Compound 3-a, 1-methyl-5-p-toluoylpyrrole-2-N-(4-morpholinyl) acetamide]
[1]; 25 mg/Kg per os, 2 h
  oedema % inhibition: 27.1%
[1]; 25 mg/Kg per os, 4 h
  oedema % inhibition: 29.0%
[1]; 25 mg/Kg per os, 6 h
  oedema % inhibition: 32.3%
[1]; 25 mg/Kg per os, 24 h
  oedema % inhibition: 7.1%
[1]; 25 mg/Kg per os, 48 h
  oedema % inhibition: 0.0%
[1]; 25 mg/Kg per os, 72 h
  oedema % inhibition: 0.0%
[1]; 25 mg/Kg, Table IV (route not given), 2 h
  oedema % inhibition: 28.9%
[1]; 25 mg/Kg, Table IV (route not given), 4 h
  oedema % inhibition: 32.7%
[1]; 25 mg/Kg, Table IV (route not given), 6 h
  oedema % inhibition: 34.0%
[1]; 25 mg/Kg, Table IV (route not given), 24 h
  oedema % inhibition: 10.1%
[1]; 25 mg/Kg, Table IV (route not given), 48 h
  oedema % inhibition: 0.0%
[1]; 25 mg/Kg, Table IV (route not given), 72 h
  oedema % inhibition: 0.0%
[1]; 50 mg/Kg per os, 2 h
  oedema % inhibition: 46.0%
[1]; 50 mg/Kg per os, 4 h
  oedema % inhibition: 49.1%
[1]; 50 mg/Kg per os, 6 h
  oedema % inhibition: 48.0%
[1]; 50 mg/Kg per os, 24 h
  oedema % inhibition: 13.4%
[1]; 50 mg/Kg per os, 48 h
  oedema % inhibition: 0.0%
[1]; 50 mg/Kg per os, 72 h
  oedema % inhibition: 0.0%
[1]; 50 mg/Kg, Table IV (route not given), 2 h
  oedema % inhibition: 50.7%
[1]; 50 mg/Kg, Table IV (route not given), 4 h
  oedema % inhibition: 48.9%
[1]; 50 mg/Kg, Table IV (route not given), 6 h
  oedema % inhibition: 42.0%
[1]; 50 mg/Kg, Table IV (route not given), 24 h
  oedema % inhibition: 11.2%
[1]; 50 mg/Kg, Table IV (route not given), 48 h
  oedema % inhibition: 0.0%
[1]; 50 mg/Kg, Table IV (route not given), 72 h
  oedema % inhibition: 0.0%
[1]; 100 mg/Kg per os, 2 h
  oedema % inhibition: 60.0%
[1]; 100 mg/Kg per os, 4 h
  oedema % inhibition: 55.2%
[1]; 100 mg/Kg per os, 6 h
  oedema % inhibition: 69.7%
[1]; 100 mg/Kg per os, 24 h
  oedema % inhibition: 18.1%
[1]; 100 mg/Kg per os, 48 h
  oedema % inhibition: 0.0%
[1]; 100 mg/Kg per os, 72 h
  oedema % inhibition: 0.0%
[1]; 100 mg/Kg, Table IV (route not given), 2 h
  oedema % inhibition: 69.8%
[1]; 100 mg/Kg, Table IV (route not given), 4 h
  oedema % inhibition: 69.0%
[1]; 100 mg/Kg, Table IV (route not given), 6 h
  oedema % inhibition: 63.0%
[1]; 100 mg/Kg, Table IV (route not given), 24 h
  oedema % inhibition: 13.1%
[1]; 100 mg/Kg, Table IV (route not given), 48 h
  oedema % inhibition: 0.0%
[1]; 100 mg/Kg, Table IV (route not given), 72 h
  oedema % inhibition: 0.0%
[2]; 5 mg/Kg i.p.
  % Protection: 18.0%
[2]; 5 mg/Kg per os
  % Protection: 16.0%
[2]; 10 mg/Kg i.p.
  % Protection: 48.0%
[2]; 10 mg/Kg per os
  % Protection: 39.0%
[2]; 20 mg/Kg i.p.
  % Protection: 76.0%
[2]; 20 mg/Kg per os
  % Protection: 65.0%
[3]; 50 mg/Kg i.p., 3 h
  % difference in mucus secretion: -10%
[3]; 50 mg/Kg i.p., 6 h
  % difference in mucus secretion: -7%
[3]; 50 mg/Kg per os, 3 h
  % difference in mucus secretion: -7%
[3]; 50 mg/Kg per os, 6 h
  % difference in mucus secretion: -8%
[3]; 75 mg/Kg i.p., 3 h
  % difference in mucus secretion: -20%
[3]; 75 mg/Kg i.p., 6 h
  % difference in mucus secretion: -18%
[3]; 75 mg/Kg per os, 3 h
  % difference in mucus secretion: -15%
[3]; 75 mg/Kg per os, 6 h
  % difference in mucus secretion: -10%
[3]; 100 mg/Kg i.p., 3 h
  % difference in mucus secretion: -38%
[3]; 100 mg/Kg i.p., 6 h
  % difference in mucus secretion: -29%
[3]; 100 mg/Kg per os, 3 h
  % difference in mucus secretion: -32%
[3]; 100 mg/Kg per os, 6 h
  % difference in mucus secretion: -25%
[4]; 50 mg/Kg i.p.
  % inhibition, cough amplitude: 20%
  % inhibition, cough frequency: 15%
[4]; 50 mg/Kg per os
  % inhibition, cough amplitude: 15%
  % inhibition, cough frequency: 16%
[4]; 75 mg/Kg i.p.
  % inhibition, cough amplitude: 30%
  % inhibition, cough frequency: 16%
[4]; 75 mg/Kg per os
  % inhibition, cough amplitude: 30%
  % inhibition, cough frequency: 18%
[4]; 100 mg/Kg i.p.
  % inhibition, cough amplitude: 40%
  % inhibition, cough frequency: 56%
[4]; 100 mg/Kg per os
  % inhibition, cough amplitude: 35%
  % inhibition, cough frequency: 45%
[5]; ip
  LD50: 1500 mg/kg
[5]; po
  LD50: > 2000 mg/kg
[6]; ip
  LD50: 1370 mg/kg
[6]; po
  LD50: > 2400 mg/kg
